In ChEMBL document CHEMBL5046315, “CRCM5484: A BET-BDII Selective Compound with Differential Anti-leukemic Drug Modulation” (J Med Chem, 2022):
Calls of active or inactive are those of the source. No cut-off for these calls is given here.

Experiments:
MOLM-14 [1] = assay: Potentiation of imatinib-induced antileukemic activity against human MOLM-14 cells at 4.3 uM in presence of bone-marrow derived stromal cell-conditioned medium; assay type: functional, cell-based
CCRF-CEM [2] = assay: Potentiation of everolimus-induced antileukemic activity against human CCRF-CEM cells at 4.3 uM in presence of bone-marrow derived stromal cell-conditioned medium; assay type: functional, cell-based
CCRF-CEM [3] = assay: Potentiation of ponatinib-induced antileukemic activity against human CCRF-CEM cells at 4.3 uM in presence of bone-marrow derived stromal cell-conditioned medium; assay type: functional, cell-based
CCRF-CEM [4] = assay: Potentiation of lapatinib-induced antileukemic activity against human CCRF-CEM cells at 4.3 uM in presence of bone-marrow derived stromal cell-conditioned medium; assay type: functional, cell-based
CCRF-CEM [5] = assay: Potentiation of GSK2879552-induced antileukemic activity against human CCRF-CEM cells at 4.3 uM in presence of bone-marrow derived stromal cell-conditioned medium; assay type: functional, cell-based
U-937 [6] = assay: Potentiation of VX680-induced antileukemic activity against human U-937 cells at 4.3 uM in presence of bone-marrow derived stromal cell-conditioned medium; assay type: functional, cell-based
MOLM-14 [7] = assay: Potentiation of prima1-induced antileukemic activity against human MOLM-14 cells at 4.3 uM in presence of bone-marrow derived stromal cell-conditioned medium; assay type: functional, cell-based
CCRF-CEM [8] = assay: Potentiation of vincristine-induced antileukemic activity against human CCRF-CEM cells at 4.3 uM in presence of bone-marrow derived stromal cell-conditioned medium; assay type: functional, cell-based
U-937 [9] = assay: Potentiation of metformin -induced antileukemic activity against human U-937 cells at 4.3 uM in presence of bone-marrow derived stromal cell-conditioned medium; assay type: functional, cell-based
U-937 [10] = assay: Potentiation of erlotinib-induced antileukemic activity against human U-937 cells at 4.3 uM in presence of bone-marrow derived stromal cell-conditioned medium; assay type: functional, cell-based
CCRF-CEM [11] = assay: Potentiation of palbociclib-induced antileukemic activity against human CCRF-CEM cells at 4.3 uM in presence of bone-marrow derived stromal cell-conditioned medium; assay type: functional, cell-based
CCRF-CEM [12] = assay: Potentiation of bosutinib-induced antileukemic activity against human CCRF-CEM cells at 4.3 uM in presence of bone-marrow derived stromal cell-conditioned medium; assay type: functional, cell-based
U-937 [13] = assay: Potentiation of asparaginase-induced antileukemic activity against human U-937 cells at 4.3 uM in presence of bone-marrow derived stromal cell-conditioned medium; assay type: functional, cell-based
CCRF-CEM [14] = assay: Potentiation of trametinib-induced antileukemic activity against human CCRF-CEM cells at 4.3 uM in presence of bone-marrow derived stromal cell-conditioned medium; assay type: functional, cell-based
U-937 [15] = assay: Potentiation of everolimus-induced antileukemic activity against human U-937 cells at 4.3 uM in presence of bone-marrow derived stromal cell-conditioned medium; assay type: functional, cell-based
MOLM-14 [16] = assay: Potentiation of vincristine-induced antileukemic activity against human MOLM-14 cells at 4.3 uM in presence of bone-marrow derived stromal cell-conditioned medium; assay type: functional, cell-based
NB-4 = assay: Cytotoxicity against human NB-4 cells assessed as reduction in cell viability incubated for 72 hrs; assay type: functional, cell-based; settings: NB-4, 72 h
CCRF-CEM [17] = assay: Potentiation of panobinostat-induced antileukemic activity against human CCRF-CEM cells at 4.3 uM in presence of bone-marrow derived stromal cell-conditioned medium; assay type: functional, cell-based
MOLM-14 [18] = assay: Potentiation of afatinib-induced antileukemic activity against human MOLM-14 cells at 4.3 uM in presence of bone-marrow derived stromal cell-conditioned medium; assay type: functional, cell-based
MOLM-14 [19] = assay: Potentiation of cyclopamine-induced antileukemic activity against human MOLM-14 cells at 4.3 uM in presence of bone-marrow derived stromal cell-conditioned medium; assay type: functional, cell-based
U-937 [20] = assay: Potentiation of AC-4-130-induced antileukemic activity against human U-937 cells at 4.3 uM in presence of bone-marrow derived stromal cell-conditioned medium; assay type: functional, cell-based
U-937 [21] = assay: Potentiation of -mastinib -induced antileukemic activity against human U-937 cells at 4.3 uM in presence of bone-marrow derived stromal cell-conditioned medium; assay type: functional, cell-based
CCRF-CEM [22] = assay: Potentiation of metformin -induced antileukemic activity against human CCRF-CEM cells at 4.3 uM in presence of bone-marrow derived stromal cell-conditioned medium; assay type: functional, cell-based
MOLM-14 [23] = assay: Potentiation of ruxolitinib-induced antileukemic activity against human MOLM-14 cells at 4.3 uM in presence of bone-marrow derived stromal cell-conditioned medium; assay type: functional, cell-based
MOLM-14 [24] = assay: Potentiation of SGI-110-induced antileukemic activity against human MOLM-14 cells at 4.3 uM in presence of bone-marrow derived stromal cell-conditioned medium; assay type: functional, cell-based
U-937 [25] = assay: Potentiation of bleomycine-induced antileukemic activity against human U-937 cells at 4.3 uM in presence of bone-marrow derived stromal cell-conditioned medium; assay type: functional, cell-based
CCRF-CEM [26] = assay: Potentiation of daunorubicine-induced antileukemic activity against human CCRF-CEM cells at 4.3 uM in presence of bone-marrow derived stromal cell-conditioned medium; assay type: functional, cell-based
U-937 [27] = assay: Potentiation of ponatinib-induced antileukemic activity against human U-937 cells at 4.3 uM in presence of bone-marrow derived stromal cell-conditioned medium; assay type: functional, cell-based
[28] = molecular target: Bromodomain-containing protein 4 (Homo sapiens, UniProt O60885); assay: Inhibition of human partial length BRD4-BD2 (K333 to E460 residues) expressed in bacterial system at 1 uM by BROMOscan method relative to control
K562 = assay: Inhibition of IFNgamma induced MHC-1 expression in human K562 cells treated for 48 hrs by flow cytometric analysis; assay type: functional, cell-based; settings: dose 0.2-20 µM
CCRF-CEM [29] = assay: Potentiation of afatinib-induced antileukemic activity against human CCRF-CEM cells at 4.3 uM in presence of bone-marrow derived stromal cell-conditioned medium; assay type: functional, cell-based
U-937 [30] = assay: Potentiation of SGI-1776-induced antileukemic activity against human U-937 cells at 4.3 uM in presence of bone-marrow derived stromal cell-conditioned medium; assay type: functional, cell-based
U-937 [31] = assay: Potentiation of BKM120-induced antileukemic activity against human U-937 cells at 4.3 uM in presence of bone-marrow derived stromal cell-conditioned medium; assay type: functional, cell-based
CCRF-CEM [32] = assay: Potentiation of venetoclax-induced antileukemic activity against human CCRF-CEM cells at 4.3 uM in presence of bone-marrow derived stromal cell-conditioned medium; assay type: functional, cell-based
MOLM-14 [33] = assay: Downregulation of Myc expression in human MOLM-14 cells incubated for 2 hrs by RT-PCR analysis; assay type: functional, cell-based; settings: dose 5.0 µM
MOLM-14 [34] = assay: Potentiation of SGI-1776-induced antileukemic activity against human MOLM-14 cells at 4.3 uM in presence of bone-marrow derived stromal cell-conditioned medium; assay type: functional, cell-based
MOLM-14 [35] = assay: Potentiation of selinexor-induced antileukemic activity against human MOLM-14 cells at 4.3 uM in presence of bone-marrow derived stromal cell-conditioned medium; assay type: functional, cell-based
U-937 [36] = assay: Potentiation of venetoclax-induced antileukemic activity against human U-937 cells at 4.3 uM in presence of bone-marrow derived stromal cell-conditioned medium; assay type: functional, cell-based
MOLM-14 [37] = assay: Potentiation of asparaginase-induced antileukemic activity against human MOLM-14 cells at 4.3 uM in presence of bone-marrow derived stromal cell-conditioned medium; assay type: functional, cell-based
CCRF-CEM [38] = assay: Potentiation of SGI-1776-induced antileukemic activity against human CCRF-CEM cells at 4.3 uM in presence of bone-marrow derived stromal cell-conditioned medium; assay type: functional, cell-based
MOLM-14 [39] = assay: Potentiation of idasanutlin-induced antileukemic activity against human MOLM-14 cells at 4.3 uM in presence of bone-marrow derived stromal cell-conditioned medium; assay type: functional, cell-based

`CC(=O)N1CCc2c(sc3nc(SCC(=O)Nc4cccnc4C)n(Cc4ccco4)c(=O)c23)C1` was tested, and the Activity (MOLM-14 [1]) was “inactive”, the Activity (CCRF-CEM [2]) was “inactive” and the Activity (CCRF-CEM [3]) was “inactive”. For the same compound, the Activity (CCRF-CEM [4]) was “inactive”, the Activity (CCRF-CEM [5]) was “inactive” and the Activity (U-937 [6]) was “inactive”. For the same compound, the Activity (MOLM-14 [7]) was “inactive”, the Activity (CCRF-CEM [8]) was “inactive” and the Activity (U-937 [9]) was “inactive”. The Activity (U-937 [10]) was “inactive”, the Activity (CCRF-CEM [11]) was “inactive” and the Activity (CCRF-CEM [12]) was “inactive”. For the same compound, the Activity (U-937 [13]) was “inactive”, the Activity (CCRF-CEM [14]) was “inactive” and the Activity (U-937 [15]) was “inactive”. For the same compound, the Activity (MOLM-14 [16]) was “inactive”, the EC50 (NB-4) was over 5 µM and the Activity (CCRF-CEM [17]) was “inactive”. For the same compound, the Activity (MOLM-14 [18]) was “inactive”, the Activity (MOLM-14 [19]) was “inactive” and the Activity (U-937 [20]) was “inactive”. For the same compound, the Activity (U-937 [21]) was “inactive”, the Activity (CCRF-CEM [22]) was “inactive” and the Activity (MOLM-14 [23]) was “inactive”. The Activity (MOLM-14 [24]) was “inactive”, the Activity (U-937 [25]) was “inactive” and the Activity (CCRF-CEM [26]) was “inactive”. For the same compound, the Activity (U-937 [27]) was “inactive”, the inhibition [28] was 41% and the Activity (K562) was “Dose-Dependent Effect”. The Activity (CCRF-CEM [29]) was “inactive”, the Activity (U-937 [30]) was “inactive” and the Activity (U-937 [31]) was “inactive”. The Activity (CCRF-CEM [32]) was “inactive”, the Activity (MOLM-14 [33]) was “Dose-Dependent Effect” and the Activity (MOLM-14 [34]) was “inactive”. For the same compound, the Activity (MOLM-14 [35]) was “inactive”, the Activity (U-937 [36]) was “inactive” and the Activity (MOLM-14 [37]) was “inactive”. The Activity (CCRF-CEM [38]) was “inactive” and the Activity (MOLM-14 [39]) was “inactive”.
